# Measured values: patent publication US20260008793A1, “IONIZABLE CATIONIC LIPIDS INCORPORATING SILICON” (ALDEXCHEM KFT., priority 2022, published 2026)
# How the values were obtained:
# [1] = LNP size, PDI and zeta potential by Dynamic Light Scattering (Method A); assay type: physicochemical; details: LNP formulated by Method A; for Zeta potential (mV): 1xPBS pH 7.4; for PDI / Size (nm): DLS; for Size (nm): Luciferase-mRNA loaded
# Protocol: The synthesized lipids were tested in term of in vitro transfection efficacy and toxicity on HeLa cells. In order to perform the mentioned biological tests, appropriate LNPs had to be formulated from the synthesized lipids. The formulation technique was different in Method A and B. The particle size, PDI and zeta potential of resulting LNPs were determined by means of Dynamic Light Scattering technique (DLS). Prior to biological testing the encapsulation efficiency (EE) of the loaded LNPs was determined by using RiboGreen RNA assay. In case of Method A Luciferase-mRNA while in case of Method B GFP-mRNA was transfected into the cells. In parallel with the transfection experiments, toxicity of the investigated LNPs was determined, in case of Method A resazurin assay while in case of Method B MTT assay was used. In the case of some lipids, the apparent pKa in LNPs was determined by using TNS titration based on the method described: Angew Chem Int Ed Engl. 2012, 51 (34), 8529-8533, doi: 10.1002/anie.201203263).
# • 1. If needed, prepare stock solutions by solving known amounts of lipid powder into an appropriate solvent. The recommended solvent is Ethanol and the recommended concentration is typically in the range 10-50 mM. Higher concentrations are preferred to allow flexibility on mRNA-LNP concentration. • 2. Remove the lipid stock solutions from the −20° C. freezer. For long-term storage, −80° C. is used. • 3. Check the vials for precipitation, DOPE (CAS #4004-05-1) (20 mM) and DSPE-PEG (CAS #474922-26-4) (5 mM) may need a 5-30 minute incubation step at 37° C. with intermittent vortexing to resuspend all contents. […] As a last resort, lipids may be heated to 50° C. to resuspend, time should be kept as short as possible to prevent oxidation or other modifying or degradative processes. • 4. Mix the lipids by vortexing for 2 minutes. • 5. […] Cooling the solution prevent excessive evaporation of ethanol or similar solvents upon opening. • 6. Meanwhile, thaw the RNA samples, including the latest SecNLuc control, by inserting the frozen tube in a room temperature aluminium block. • 7. Prepare for each LNP-formulation with identical mRNA component, an RNA master mix according to Table 1 below in a fresh tube. Use of a master mix allows more precise comparison of lipid formulations relative to each other. Split the master mix over a number of fresh tubes equal to the number of samples+controls. Each tube contains 375 μl of mRNA in 10 mM Citrate pH 4.0. • 8. Prepare for each LNP formulation with identical lipid composition a Lipid master mix according to Table 1 below in a fresh tube, exclude the lipid of interest. Use of a master mix allows more precise comparison of the novel ionizable lipid relative to each other. Split the master mix over a number of fresh tubes equal to the number of samples+controls. Each tube contains 65.5 μl of lipid master mix. • 9. Add the ionizable lipid of interest to the equally divide lipid master mix. Mix well by pipetting up and down. Label the tube according to the ionizable lipid used. • 10. Power on the ‘L 1 formulation machine’ (L 1 FM) and allow it to do a calibration of motor positions.
# • 18. Fill a fresh syringe (C) through a blunt 18 G stainless steel needle with the previously prepared RNA mixture of step 6. The volume should be approximately […] of total formulation volume+25 μl (dead-volume). Make sure to remove all air bubbles by tapping. • 19. Fill a fresh syringe (D) through a blunt 18 G stainless steel needle with the Lipid master mix. The volume should be approximately 35% of total formulation volume+25 μl (dead-volume). Again, Make sure to remove all bubbles. • 20. Attach the syringes in the correct orientation, syringe A on the left and syringe B on the right • 21. Load the ‘Receiving station’ with appropriate sized collection containers (2 ml Eppendorf tubes). • 22. Press the microfluidic chip to the back of the machine with your thumb and hold, press the ‘Button 1’ (40 g). […]
# HeLa cells = assay: Transfection efficiency with Luciferase-mRNA, Nano-Glo assay (Method A); assay type: cell-based; details: 100 ng Luciferase (SecNLuc) mRNA, 24 h, luminescence
# In short: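 LNPs carrying secreted NanoLuc mRNA (100, 50 or 10 ng/well, in Opti-MEM) added to HeLa cells at ~80% confluence and incubated 24 h. Medium luciferase activity measured by Nano-Glo luminescence about 3 min after reagent addition; toxicity tested in parallel by resazurin.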
SMILES,Zeta potential (mV) [1] [mV],PDI [1],Size (nm) [1] [nm],Transfection* (Method A = 100 ng mRNA) (HeLa cells)
"CCCCCCCCO[Si](C)(C)OC(CCCCCCC)OCCCCCCN(CCCCO)CCC[C@@H](C)C1CCC2C3CCC4C[C@H](OC)CC[C@]4(C)C3CC[C@@]21C (stereo partly drawn) [Example 217, 13-heptyl-5-((4R)-4-((3R,10S,13R)-3-methoxy-10,13-dimethylhexadecahydro-1H-cyclopenta[a]phenanthren-17-yl)pentyl)-15,15-dimethyl-12,14,16-trioxa-5-aza-15-silatetracosan-1-ol]",−13.68,0.897,178.1,2231945
"CCCCCCCCCCSC(CCCC)C(=O)OCCCCCCN(CCCCO)CCCCCCOC(CCCCCCC)O[Si](C)(C)O[Si](C)(C)CCCCCCCC (centres unmarked) [Example 171, 15-heptyl-7-(4-hydroxybutyl)-17,17,19,19-tetramethyl-14,16,18-trioxa-7-aza-17,19-disilaheptacosyl 2-(decylthio)hexanoate]",−12.04,0.017,178.9,302489
"CCCCCCCCOC(CCCCCN(CCCCO)CCC[C@@H](C)C1CCC2C3CCC4C[C@H](OC)CC[C@]4(C)C3CC[C@@]21C)O[Si](C)(C)OCC(CCCCCC)CCCCCCCC (stereo partly drawn) [Example 222, 16-hexyl-5-((4R)-4-((3R,10S,13R)-3-methoxy-10,13-dimethylhexadecahydro-1H-cyclopenta[a]phenanthren-17-yl)pentyl)-13,13-dimethyl-11-(octyloxy)-12,14-dioxa-5-aza-13-silatetracosan-1-ol]",−16.36,0.121,164.5,1156093
"CCCCCCCCCC(OCCCCCC)O[Si](C)(C)OCCCCCCN(CCCCO)CCCCCCOC(=O)C(CCCCCC)CCCCCCCC (centres unmarked) [Example 144, 18-(4-hydroxybutyl)-10,10-dimethyl-8-nonyl-7,9,11-trioxa-18-aza-10-silatetracosan-24-yl 2-hexyldecanoate]",−10.5,0.15,133.9,5688575
"CCCCCCCCOC(CCCCCN(CCCCCC(OCCCCCCCC)O[Si](C)(C)O[Si](C)(C)CCCCCCCC)CCC1CCCN1C)O[Si](C)(C)O[Si](C)(C)CCCCCCCC (centres unmarked) [Example 118, N-(2-(1-methylpyrrolidin-2-yl)ethyl)-6-(octyloxy)-N-(6-(octyloxy)-6-((1,1,3,3-tetramethyl-3-octyldisiloxaneyl)oxy)hexyl)-6-((1,1,3,3-tetramethyl-3-octyldisiloxaneyl)oxy)hexan-1-amine]",−15.92,0.04,179.2,57119.5
"CCCCCCCCCCSC(CCCC)C(=O)OCCCCCCN(CCCCO)CCCCCC(OCCCCCCCC)O[Si](C)(C)OCCCCCCCC (centres unmarked) [Example 168, 7-(4-hydroxybutyl)-15,15-dimethyl-13-(octyloxy)-14,16-dioxa-7-aza-15-silatetracosyl 2-(decylthio)hexanoate]",−11.79,0.085,224.2,74333
"CC/C=C\C/C=C\C/C=C\C/C=C\C/C=C\CCCCN(CCCCO)CCCCCCOC(CCCCCCC)O[Si](C)(C)OCCCCCCCC (centres unmarked) [Example 197, 13-heptyl-5-((5Z,8Z,11Z,14Z,17Z)-icosa-5,8,11,14,17-pentaen-1-yl)-15,15-dimethyl-12,14,16-trioxa-5-aza-15-silatetracosan-1-ol]",−12.3,0.135,170,497865
"CCCCCCCCSC(CCCCCCC)O[Si](C)(C)OCCCCCCN(CCCCO)CCCCCCO[Si](C)(C)OC(CCCCCCC)SCCCCCCCC (centres unmarked) [Example 115, 15-heptyl-5-(10-heptyl-8,8-dimethyl-7,9-dioxa-11-thia-8-silanonadecyl)-13,13-dimethyl-12,14-dioxa-16-thia-5-aza-13-silatetracosan-1-ol]",0.3,0.13,130.2,1135215
"CCCCCCCCC(CCCCCC)C(=O)OCCCCCCN(CCCCO)CCCCCCOC(CCCCCCC)O[Si](C)(C)CCCCCCCC (centres unmarked) [Example 129, 15-heptyl-7-(4-hydroxybutyl)-17,17-dimethyl-14,16-dioxa-7-aza-17-silapentacosyl 2-hexyldecanoate]",−12.48,0.054,132.9,962783
"CC/C=C\C/C=C\C/C=C\C/C=C\C/C=C\CCCCN(CCCCO)CCCCCCOC(CCCCCCC)O[Si](C)(C)OCC(CCCCCC)CCCCCCCC (centres unmarked) [Example 203, 13-heptyl-18-hexyl-5-((5Z,8Z,11Z,14Z,17Z)-icosa-5,8,11,14,17-pentaen-1-yl)-15,15-dimethyl-12,14,16-trioxa-5-aza-15-silahexacosan-1-ol]",−14.95,0.13,139.2,161894
"CCCCCCCCCCSC(CCCC)C(=O)OCCCCCCN(CCCCO)CCCCCCOC(CCCCCCC)O[Si](C)(C)O[Si](C)(C)OCCCCCCCC (centres unmarked) [Example 173, 15-heptyl-7-(4-hydroxybutyl)-17,17,19,19-tetramethyl-14,16,18,20-tetraoxa-7-aza-17,19-disilaoctacosyl 2-(decylthio)hexanoate]",−11.32,0.033,180.5,182533
"CCCCCCCCO[Si](C)(C)O[Si](C)(C)OC(CCCCCCC)OCCCCCCN(CCCCO)CCCCCCOC(=O)C(CCCCCC)CCCCCCCC (centres unmarked) [Example 135, 15-heptyl-7-(4-hydroxybutyl)-17,17,19,19-tetramethyl-14,16,18,20-tetraoxa-7-aza-17,19-disilaoctacosyl 2-hexyldecanoate]",−16.11,0.158,271.2,538348
"CCCCCCCCOC(CCCCCN(CCCCO)CCCCCCOC(=O)C(CCCCCC)CCCCCCCC)O[Si](C)(C)CCCCCCCC (centres unmarked) [Example 128, 6-((6-((dimethyl(octyl)silyl)oxy)-6-(octyloxy)hexyl)(4-hydroxybutyl)amino)hexyl 2-hexyldecanoate]",−14.77,0.107,228.6,647195.5
"CCCCCCCCOC(CCCCCN(CCCCO)CCC[C@@H](C)C1CCC2C3CCC4C[C@H](OC)CC[C@]4(C)C3CC[C@@]21C)O[Si](C)(C)O[Si](C)(C)OCCCCCCCC (stereo partly drawn) [Example 220, 4-(((4R)-4-((3R,10S,13R)-3-methoxy-10,13-dimethylhexadecahydro-1H-cyclopenta[a]phenanthren-17-yl)pentyl)(6-(octyloxy)-6-((1,1,3,3-tetramethyl-3-(octyloxy)disiloxaneyl)oxy)hexyl)amino)butan-1-ol]",−14.55,0.002,138.4,367060
